According to PMC7765948, “Spadin Modulates Astrocytic Passive Conductance via Inhibition of TWIK-1/TREK-1 Heterodimeric Channels” (International Journal of Molecular Sciences, 2020):
Where two headings read alike, the source gives them in different places.

Columns and labels:
TREK-1 = details: cited from earlier work; for reduction of TREK-1 activity: antidepressants
Method: (§1) Because of the typical linear I–V relationship of astrocytic passive conductance, it has been speculated that astrocytic passive conductance is carried by non-voltage-gated K^+ channels.

[1] = test system: astrocytic passive conductance in mouse hippocampal slices; test: Whole-cell patch clamp of astrocytic passive conductance in hippocampal slices; type: cell-based, mouse (C57BL/6); details: quinidine 200 μM versus spadin 10 μM
Method: Lentiviruses were injected into hippocampal CA1 region (AP: 0.17, ML: 0.17, DV: 0.19) of 7–8 week-old wild-type C57BL/6 mice. The virus-infected mouse brain slices (350 μm) containing the hippocampus were […]. Individual hippocampal slices were transferred to a recording chamber, which was constantly perfused with artificial cerebrospinal fluid (ACSF) recording solution containing (in mM) 130 NaCl, 24 NaHCO3, 3.5 KCl, 1.25 NaH2PO4, 1.5 CaCl2, 1.5 MgCl2, and 10 glucose saturated with 95% O2–5% CO2 at pH 7.4. Brain slices were co-loaded with SR-101 (Sigma Aldrich, St. Louis, MO, USA; 1 mM) dye to identify the location of astrocytes in the CA1 region. The slices were recovered at room temperature for at least 1 h before SR101 incubation and electrophysiological recording. […] Whole-cell patch recordings were performed on hippocampal astrocytes with a voltage-clamp configuration using an Axopatch 700B (Axon Instruments, Union City, CA, USA). All data are presented as means ± standard error of the mean (s.e.m). The significance of data for comparison was assessed by Student’s t-test (paired t-test) or one-way ANOVA followed by Turkey’s post hoc test, and significance levels are given as: n.s: not significant, * p < 0.05, ** p < 0.01, *** p < 0.001, and **** p < 0.0001. […]

[2] = test system: astrocytic passive conductance; details: 200 μM quinine; cited from earlier work
Method: as §1

TWIK-1 (K274E) = details: 100 μM quinine; cited from earlier work
Method: as §1

[3] = conventional K^+ channel blockers

SMILES: Fc1ccc([C@@H]2CCNC[C@H]2COc2ccc3c(c2)OCO3)cc1 [paroxetine]
- reduction of TREK-1 activity (TREK-1): effective in the reduction of TREK-1 activity

SMILES: C=C[C@H]1C[N@@]2CC[C@H]1C[C@@H]2[C@@H](O)c1ccnc2ccc(OC)cc12 [quinidine]
- TREK-1 channel activity (TREK-1; high-dose quinine or quinidine): affected
- concentration required for similar inhibition of passive conductance [1]: required at a much higher concentration than spadin

SMILES: CNCCC(Oc1ccc(C(F)(F)F)cc1)c1ccccc1 (centres unmarked) [Fluoxetine]
- reduction of TREK-1 activity (TREK-1): effective in the reduction of TREK-1 activity

SMILES: CC[N+](CC)(CC)CC [tetraethylammonium]
- TREK-1 channel activity (TREK-1; [3]): not

SMILES: CCCCC/C=C\C/C=C\C/C=C\C/C=C\CCCC(=O)O [AA, arachidonic acid]
- TREK-1 channel activation (TREK-1): activated

SMILES: Nc1ccncn1 [4-aminopyrimidine]
- TREK-1 channel activity (TREK-1; [3]): not

SMILES: C=C[C@H]1C[N@@]2CC[C@H]1C[C@H]2[C@H](O)c1ccnc2ccc(OC)cc12 [quinine]
- inhibition of astrocytic passive conductance [2]: 58%
- cloned TREK-1 current (TREK-1; 100 μM quinine): potently decreases
- TREK-1 channel activity (TREK-1; high-dose quinine or quinidine): affected
- cloned TWIK-1 (K274E) current (TWIK-1 (K274E)): potently decreases
